Results taken from patent US4160829A, “Antibacterial 1,2,4-oxadiazolylacetamido cephalosporins” (Gist-Brocades N.V., priority 1972, dated 1979).
≈ marks a conversion by molar mass, not a printed value. Where two headings read alike, the source gives them in different places.

Experiments:
[1] = system: Shig.equir. T 3; test: agar serial dilution test; format: cell-based; conditions: 24 h, 37° C., read-out: minimal inhibitory concentration (MIC)
[2] = system: Staph.aureus A 2001; test: agar serial dilution test; format: cell-based, Staphylococcus aureus; conditions: Staphylococcus aureus, A2001, 24 h, agar serial dilution, 24 hours, 37° C.; read-out: minimal inhibitory concentration (MIC)
[3] = system: Esch.coli U 20; test: agar serial dilution test; format: cell-based, Escherichia coli; conditions: Escherichia coli
[4] = system: Prot.rettg. A 821; test: agar serial dilution test; format: cell-based, Proteus rettgeri; conditions: Providencia rettgeri, 24 h, read-out: minimal inhibitory concentration (MIC)
[5] = system: Pseud.aerug. 2396; test: agar serial dilution test; format: cell-based; conditions: agar serial dilution, 24 hours, 37° C.; read-out: minimal inhibitory concentration (MIC)
[6] = system: Prot.mirab. H 3; test: agar serial dilution test; format: cell-based, Proteus mirabilis; conditions: Proteus mirabilis; agar serial dilution, 24 hours, 37° C.; read-out: minimal inhibitory concentration (MIC)
[7] = system: Pseud.aerug. Wyeth A 1058; test: agar serial dilution test; format: cell-based; conditions: agar serial dilution, 24 hours, 37° C.; read-out: minimal inhibitory concentration (MIC)
[8] = system: Prot.morg. 2241; test: agar serial dilution test; format: cell-based; conditions: 24 h, agar serial dilution, 24 hours, 37° C.; read-out: minimal inhibitory concentration (MIC)
[9] = system: Kleb.pneum. A 809; test: agar serial dilution test; format: cell-based, Klebsiella pneumoniae; conditions: Klebsiella pneumoniae; agar serial dilution, 24 hours, 37° C.; read-out: minimal inhibitory concentration (MIC)
[10] = system: Bruc.melit. A 488; test: microbe, parasite or virus in culture; format: cell-based; conditions: Brucella melitensis, 24 h, read-out: minimal inhibitory concentration (MIC)
[11] = system: Staph.aureus A 321; test: agar serial dilution test; format: cell-based, Staphylococcus aureus; conditions: Staphylococcus aureus, A321, 24 h, agar serial dilution, 24 hours, 37° C.; read-out: minimal inhibitory concentration (MIC)
[12] = system: Bac.Subt.ATCC 6633; test: agar serial dilution test; format: cell-based, Bacillus subtilis; conditions: Bacillus subtilis, ATCC6633, 24 h, agar serial dilution, 24 hours, 37° C.; read-out: minimal inhibitory concentration (MIC)
[13] = system: Staph.aureus A 2000; test: micro serial dilution test; format: cell-based, Staphylococcus aureus; conditions: Staphylococcus aureus, A2000, 18 h, micro serial dilution (in brackets), about 18 hours, 30° C. or 37° C.; read-out: minimal inhibitory concentration (MIC)
[14] = system: Strep.haem. A 266; test: agar serial dilution test; format: cell-based, Streptococcus haemolyticus; conditions: Streptococcus; agar serial dilution, 24 hours, 37° C.; read-out: minimal inhibitory concentration (MIC)
[15] = system: Pseud.aerug. H 10; test: agar serial dilution test; format: cell-based; conditions: agar serial dilution, 24 hours, 37° C.; read-out: minimal inhibitory concentration (MIC)
[16] = system: Haem.infl. A 1030; test: micro serial dilution test; format: cell-based; conditions: 18 h, micro serial dilution (in brackets), about 18 hours, 30° C. or 37° C.; read-out: minimal inhibitory concentration (MIC)
[17] = system: Staph.aureus A 355; test: micro serial dilution test; format: cell-based, Staphylococcus aureus; conditions: Staphylococcus aureus, A355; micro serial dilution (in brackets), about 18 hours, 30° C. or 37° C.; penicillinase-producing strain; read-out: minimal inhibitory concentration (MIC)
[18] = system: Dipl.pneum. L 54; test: agar serial dilution test; format: cell-based, Diplococcus pneumoniae; conditions: Streptococcus pneumoniae; agar serial dilution, 24 hours, 37° C.; read-out: minimal inhibitory concentration (MIC)
[19] = system: Prot.mirab. A 1200; test: agar serial dilution test; format: cell-based, Proteus mirabilis; conditions: Proteus mirabilis, 24 h, read-out: minimal inhibitory concentration (MIC)
[20] = system: Salm.typh. R 127; test: agar serial dilution test; format: cell-based; conditions: 24 h, 37° C., read-out: minimal inhibitory concentration (MIC)
[21] = system: Staph.aureus A 2001; test: micro serial dilution test; format: cell-based, Staphylococcus aureus; conditions: Staphylococcus aureus, A2001, 18 h, micro serial dilution (in brackets), about 18 hours, 30° C. or 37° C.; read-out: minimal inhibitory concentration (MIC)
[22] = system: Prot.mirab. L 93; test: agar serial dilution test; format: cell-based, Proteus mirabilis; conditions: Proteus mirabilis
[23] = system: Past.multo. A 723; test: agar serial dilution test; format: cell-based, Pasteurella multocida; conditions: Pasteurella multocida; agar serial dilution, 24 hours, 37° C.; read-out: minimal inhibitory concentration (MIC)
[24] = system: Staph.aureus A 355; test: agar serial dilution test; conditions: Staphylococcus aureus, A355, 24 h, read-out: minimal inhibitory concentration (MIC), agar serial dilution, 24 hours, 37° C.; penicillinase-producing strain
[25] = system: Staph.aureus A 2000; test: agar serial dilution test; format: cell-based, Staphylococcus aureus; conditions: Staphylococcus aureus, A2000, 24 h, agar serial dilution, 24 hours, 37° C.; read-out: minimal inhibitory concentration (MIC)
[26] = system: Strep. faec. L 80; test: agar serial dilution test; format: cell-based, Streptococcus faecalis; conditions: Enterococcus faecalis; agar serial dilution, 24 hours, 37° C.; read-out: minimal inhibitory concentration (MIC)
[27] = system: Salm.dubl. P 43; test: agar serial dilution test; format: cell-based, Salmonella dublin; conditions: Salmonella enterica, read-out: minimal inhibitory concentration (MIC)
[28] = U20, agar serial dilution, 24 hours, 37° C., read-out: minimal inhibitory concentration (MIC)
[29] = agar serial dilution, 24 hours, 37° C.
[30] = agar serial dilution, 24 hours, 37° C., read-out: minimal inhibitory concentration (MIC)

| Compound | MIC [1] [µg/mL] | MIC [2] [µg/mL] | MIC [5] [µg/mL] | MIC [6] [µg/mL] | MIC [7] [µg/mL] | MIC [8] [µg/mL] | MIC [9] [µg/mL] | MIC [10] [µg/mL] | MIC [11] [µg/mL] | MIC [12] [µg/mL] | MIC [13] [µg/mL] | MIC [14] [µg/mL] | MIC [15] [µg/mL] | MIC [16] [µg/mL] | MIC [17] [µg/mL] | MIC [18] [µg/mL] | MIC [20] [µg/mL] | MIC [21] [µg/mL] | MIC [23] [µg/mL] | MIC [24] [µg/mL] | also measured |
| --- | --- | --- | --- | --- | --- | --- | --- | --- | --- | --- | --- | --- | --- | --- | --- | --- | --- | --- | --- | --- | --- |
| CCc1noc(C(C)C(=O)N[C@@H]2C(=O)N3C(C(=O)O)=C(COC(C)=O)CS[C@H]23)n1 (mixture of isomers) [Example 11K, dl-7-[α-methyl-(3-ethyl-1,2,4-oxadiazol-5-yl)-acetamido]-cephalosporanic acid] | 25 | 1 | > 100 | > 100 | > 100 | > 100 | 6 | 12.5 | 1.5 | 0.25 | 1.2 | 0.06 | > 100 | 125 | 0.9 | 1 | > 100 | 0.9 | 1.5 | 1.5 | MIC [3, 28]: > 100 µg/mL; MIC [4]: 12.5 µg/mL; MIC [19, 29]: > 100 µg/mL; MIC ([22]; 24 h, read-out: minimal inhibitory concentration (MIC), agar serial dilution, 24 hours, 37° C.): 12.5 µg/mL; MIC [25]: 1.5 µg/mL; MIC [26]: 100 µg/mL; MIC [27, 29]: 100 µg/mL |
| CC(=O)OCC1=C(C(=O)O)N2C(=O)[C@@H](NC(=O)C(c3ccccc3)c3nc(C)no3)[C@H]2SC1 (stereo partly drawn) [Compound B, 7-[α-phenyl-(3-methyl-1,2,4-oxadiazol-5-yl)-acetamido]-3-acetoxymethyl-3-cephem-4-carboxylic acid] | > 100 | 1.5 (≈ 3.17 µM) | > 100 | > 100 | > 100 | > 100 | 6 (≈ 12.7 µM) | 1.5 (≈ 3.17 µM) | 0.5 (≈ 1.06 µM) | 0.25 (≈ 0.529 µM) | 1.2 (≈ 2.54 µM) | 0.5 (≈ 1.06 µM) | > 100 | 1.2 (≈ 2.54 µM) | 1.2 (≈ 2.54 µM) | 1 (≈ 2.12 µM) | > 100 | 1.2 (≈ 2.54 µM) | 0.5 (≈ 1.06 µM) | 1.5 (≈ 3.17 µM) | MIC [3, 28]: > 100 µg/mL; MIC [4, 29]: 3 µg/mL (≈ 6.35 µM); MIC [19, 29]: > 100 µg/mL; MIC [22, 30]: 25 µg/mL (≈ 52.9 µM); MIC [25]: 1.5 µg/mL (≈ 3.17 µM); MIC [26]: 50 µg/mL (≈ 106 µM); MIC [27, 29]: > 100 µg/mL |
| CC1=C(C(=O)O)N2C(=O)[C@@H](NC(=O)Cc3nc(Cc4ccccc4)no3)[C@H]2SC1 [Example 7, 7-[(3-benzyl-1,2,4-oxadiazol-5-yl)-acetamido]-desacetoxycephalosporanic acid] | > 100 | 6 (≈ 14.5 µM) | > 100 | > 100 | > 100 | > 100 | 100 (≈ 241 µM) | 25 (≈ 60.3 µM) | 3 (≈ 7.24 µM) | 3 (≈ 7.24 µM) | 4 (≈ 9.65 µM) | 25 (≈ 60.3 µM) | > 100 | 30 (≈ 72.4 µM) | 8 (≈ 19.3 µM) | 4 (≈ 9.65 µM) | > 100 | 5 (≈ 12.1 µM) | 25 (≈ 60.3 µM) | 100 (≈ 241 µM) | MIC [3, 28]: > 100 µg/mL; MIC [4, 29]: > 100 µg/mL; MIC [19, 29]: > 100 µg/mL; MIC [22, 30]: > 100 µg/mL; MIC [25]: 25 µg/mL (≈ 60.3 µM); MIC [26]: 100 µg/mL (≈ 241 µM); MIC [27, 29]: 100 µg/mL (≈ 241 µM) |
| CC(=O)OCC1=C(C(=O)O)N2C(=O)[C@@H](NC(=O)Cc3noc(C)n3)[C@H]2SC1 [Example 11D, 7-[(5-methyl-1,2,4-oxadiazol-3-yl)-acetamido]-cephalosporanic acid] | 1.5 (≈ 3.78 µM) | 3 (≈ 7.57 µM) | > 100 | 6 (≈ 15.1 µM) | > 100 | > 100 | 6 (≈ 15.1 µM) | 10 (≈ 25.2 µM) | 1 (≈ 2.52 µM) | 0.5 (≈ 1.26 µM) | 1.2 (≈ 3.03 µM) | 0.5 (≈ 1.26 µM) | > 100 | 90 (≈ 227 µM) | 6 (≈ 15.1 µM) | 1.5 (≈ 3.78 µM) | 12.5 (≈ 31.5 µM) | 0.6 (≈ 1.51 µM) | 6 (≈ 15.1 µM) | 6 (≈ 15.1 µM) | MIC ([3]; U20, 24 h, read-out: minimal inhibitory concentration (MIC), agar serial dilution, 24 hours, 37° C.): 12.5 µg/mL (≈ 31.5 µM); MIC [4, 29]: 40 µg/mL (≈ 101 µM); MIC [19]: 12.5 µg/mL (≈ 31.5 µM); MIC [22, 30]: 6 µg/mL (≈ 15.1 µM); MIC [25]: 3 µg/mL (≈ 7.57 µM); MIC [26]: 100 µg/mL (≈ 252 µM); MIC ([27]; 24 h): 12.5 µg/mL (≈ 31.5 µM) |
| CC(=O)OCC1=C(C(=O)O)N2C(=O)[C@@H](NC(=O)Cc3nc(-c4c(Cl)cccc4Cl)no3)[C@H]2SC1 [Example 11C, 7-{[3-(2,6-dichlorophenyl)-1,2,4-oxadiazol-5-yl]-acetamido}cephalosporanicacid] | 25 (≈ 47.4 µM) | 0.5 (≈ 0.948 µM) | > 100 | > 100 | > 100 | > 100 | 12.5 (≈ 23.7 µM) | 6 (≈ 11.4 µM) | 0.12 (≈ 0.228 µM) | 0.12 (≈ 0.228 µM) | 0.18 (≈ 0.341 µM) | 0.03 (≈ 0.0569 µM) | > 100 | 23 (≈ 43.6 µM) | 0.69 (≈ 1.31 µM) | 0.06 (≈ 0.114 µM) | > 100 | 0.25 (≈ 0.474 µM) | 6 (≈ 11.4 µM) | 0.5 (≈ 0.948 µM) | MIC [3, 28]: > 100 µg/mL; MIC [4, 29]: 3 µg/mL (≈ 5.69 µM); MIC [19, 29]: > 100 µg/mL; MIC [22, 30]: 100 µg/mL (≈ 190 µM); MIC [25]: 0.5 µg/mL (≈ 0.948 µM); MIC [26]: 1.5 µg/mL (≈ 2.84 µM); MIC [27, 29]: > 100 µg/mL |
| COCc1noc(CC(=O)N[C@@H]2C(=O)N3[C@@H]2SC(C)(C)[C@@H]3C(=O)O)n1 [Compound A, 6-[(3-methoxymethyl-1,2,4-oxadiazol-5-yl)-acetamido]-penicillanic acid] | 1.5 (≈ 4.05 µM) | 1.5 (≈ 4.05 µM) | > 100 | > 100 | > 100 | > 100 | > 100 | 0.5 (≈ 1.35 µM) | 0.5 (≈ 1.35 µM) | 0.06 (≈ 0.162 µM) | 90 (≈ 243 µM) | 0.03 (≈ 0.081 µM) | > 100 | 4 (≈ 10.8 µM) | 60 (≈ 162 µM) | 0.25 (≈ 0.675 µM) | 25 (≈ 67.5 µM) | 3.7 (≈ 9.99 µM) | 1 (≈ 2.7 µM) | 6 (≈ 16.2 µM) | MIC [3, 28]: 50 µg/mL (≈ 135 µM); MIC [4, 29]: 6 µg/mL (≈ 16.2 µM); MIC [19, 29]: 100 µg/mL (≈ 270 µM); MIC [22, 30]: 12.5 µg/mL (≈ 33.7 µM); MIC [25]: 6 µg/mL (≈ 16.2 µM); MIC [26]: 6 µg/mL (≈ 16.2 µM); MIC [27, 29]: 12.5 µg/mL (≈ 33.7 µM) |
